According to patent publication US9346809B2 (LEO PHARMA A/S, priority 2009, dated 2016):
Read-outs that look alike come from different tables or passages of the source.

Key:
Type in all cases: biochemical
[1] = target: T1, JAK1 (aa 850-1154, catalytic domain, GST-tag) (Homo sapiens, UniProt P23458); assay: JAK kinase assay (HTRF, phosphorylation of TK substrate-biotin), JAK1; conditions: ATP at Km (7 μM)
T1 construct: JAK1 (aa 850-1154) and TYK2 (aa 871-1187) are expressed with an N-terminally fused GST-tag; GST (N); purchased Carna Biosciences, Inc; host or cells: baculovirus expression system
How it was run: (§1)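 Baculovirus-expressed catalytic domains phosphorylated 1 μM TK substrate-biotin in 50 mM Hepes pH 7.0 with ATP at Km (JAK1 7 μM, JAK2 4 μM, JAK3 2 μM, TYK2 13 μM) for 20-30 min at RT. EDTA/KF stop, streptavidin-XL665 plus cryptate antibody overnight; HTRF signal gave EC50.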

[2] = target: T2, TYK2 (aa 871-1187, catalytic domain, GST-tag) (Homo sapiens, UniProt P29597); assay: JAK kinase assay (HTRF, phosphorylation of TK substrate-biotin), TYK2; conditions: ATP at Km (13 μM)
T2 construct: JAK1 (aa 850-1154) and TYK2 (aa 871-1187) are expressed with an N-terminally fused GST-tag; GST (N); purchased Carna Biosciences, Inc; host or cells: baculovirus expression system
T2 sequence (P29597 871-1187): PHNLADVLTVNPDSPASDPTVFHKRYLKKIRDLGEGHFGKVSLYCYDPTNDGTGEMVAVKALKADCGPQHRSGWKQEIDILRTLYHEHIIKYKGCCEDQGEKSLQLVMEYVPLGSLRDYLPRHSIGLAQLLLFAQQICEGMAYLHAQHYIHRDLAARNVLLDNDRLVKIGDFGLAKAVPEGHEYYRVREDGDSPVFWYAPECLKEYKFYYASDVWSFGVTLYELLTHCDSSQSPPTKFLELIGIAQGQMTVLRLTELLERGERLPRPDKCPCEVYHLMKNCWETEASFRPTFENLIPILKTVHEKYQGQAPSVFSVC
How it was run: as §1

[3] = target: T3, JAK2 (catalytic domain, His-tag) (Homo sapiens, UniProt O60674); assay: JAK kinase assay (HTRF, phosphorylation of TK substrate-biotin), JAK2; conditions: ATP at Km (4 μM)
T3 construct: All four purified enzymes contain only the catalytic domain; His (N); purchased Carna Biosciences, Inc; host or cells: baculovirus expression system
How it was run: as §1

[4] = target: T4, JAK3 (catalytic domain, His-tag) (Homo sapiens, UniProt P52333); assay: JAK kinase assay (HTRF, phosphorylation of TK substrate-biotin), JAK3; conditions: ATP at Km (2 μM)
T4 construct: All four purified enzymes contain only the catalytic domain; His (N); purchased Carna Biosciences, Inc; host or cells: baculovirus expression system
How it was run: as §1

[5] = HTRF assay, read-out: JAK1 kinase inhibitory activity (EC50 indicator)
[6] = HTRF assay, read-out: TYK2 kinase inhibitory activity (EC50 indicator)
[7] = HTRF assay, read-out: JAK2 kinase inhibitory activity (EC50 indicator)
[8] = HTRF assay, read-out: JAK3 kinase inhibitory activity (EC50 indicator)
[9] = read-out: JAK1 kinase inhibitory activity (EC50 indicator)
[10] = read-out: TYK2 kinase inhibitory activity (EC50 indicator)
[11] = read-out: JAK2 kinase inhibitory activity (EC50 indicator)
[12] = read-out: JAK3 kinase inhibitory activity (EC50 indicator)

T1 sequence (P23458 850-1154): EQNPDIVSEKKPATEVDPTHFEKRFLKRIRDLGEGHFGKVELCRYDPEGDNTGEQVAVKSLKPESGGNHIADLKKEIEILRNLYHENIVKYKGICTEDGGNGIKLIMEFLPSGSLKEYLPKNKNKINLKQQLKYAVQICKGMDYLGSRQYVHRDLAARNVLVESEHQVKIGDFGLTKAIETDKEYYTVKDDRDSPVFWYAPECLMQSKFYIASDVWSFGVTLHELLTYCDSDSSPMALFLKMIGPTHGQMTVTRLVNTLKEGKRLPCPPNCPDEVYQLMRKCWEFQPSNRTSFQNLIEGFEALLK
T3 sequence (O60674 849-1124 limits assumed): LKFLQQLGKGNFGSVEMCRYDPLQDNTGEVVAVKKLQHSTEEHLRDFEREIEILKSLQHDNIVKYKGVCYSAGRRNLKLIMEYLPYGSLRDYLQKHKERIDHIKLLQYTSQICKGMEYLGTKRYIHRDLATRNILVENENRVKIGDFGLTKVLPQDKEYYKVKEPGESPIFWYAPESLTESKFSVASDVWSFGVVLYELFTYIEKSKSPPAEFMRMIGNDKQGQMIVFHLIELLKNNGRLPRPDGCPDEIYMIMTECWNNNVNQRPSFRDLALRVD
T4 sequence (P52333 822-1111 limits assumed): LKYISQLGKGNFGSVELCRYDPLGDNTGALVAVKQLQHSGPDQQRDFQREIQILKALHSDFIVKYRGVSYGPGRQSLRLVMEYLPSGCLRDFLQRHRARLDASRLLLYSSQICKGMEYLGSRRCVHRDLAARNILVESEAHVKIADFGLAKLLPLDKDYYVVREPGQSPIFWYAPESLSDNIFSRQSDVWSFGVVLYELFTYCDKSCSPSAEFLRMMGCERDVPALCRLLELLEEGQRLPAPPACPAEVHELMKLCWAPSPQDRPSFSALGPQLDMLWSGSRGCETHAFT

For `O=C(c1cc2c(F)cccc2[nH]1)N1CCN(c2ncnc3[nH]ccc23)CC12CC2` [Example 368, (4-Fluoro-1H-indol-2-yl)-[7-(7H-pyrrolo[2,3-d]pyrimidin-4-yl)-4,7-diaza-spiro[2.5]oct-4-yl]-methanone], the EC50 [1, 5] was < 100 nM, the EC50 [2, 6] was 100 to 500 nM and the EC50 [3, 7] was < 100 nM. For the same compound, the EC50 [4, 8] was 100 to 500 nM.

With `N#CCc1ccc(C(=O)N2CCN(c3ccnc4[nH]ccc34)CC23CC3)cc1` [Example 230, {4-[7-(1H-Pyrrolo[2,3-b]pyridin-4-yl)-4,7-diaza-spiro[2.5]octane-4-carbonyl]-phenyl}-acetonitrile] the EC50 [1, 5] was 100 to 500 nM, the EC50 [2, 6] was > 500 nM and the EC50 [3, 7] was < 100 nM. For the same compound, the EC50 [4, 8] was 100 to 500 nM.

With `N#Cc1ccccc1C(=O)N1CCN(c2ncnc3[nH]ccc23)CC12CC2` [Example 299, 2-[7-(7H-Pyrrolo[2,3-d]pyrimidin-4-yl)-4,7-diaza-spiro[2.5]octane-4-carbonyl]-benzonitrile] the EC50 [1, 5] was < 100 nM, the EC50 [2, 6] was 100 to 500 nM and the EC50 [3, 7] was < 100 nM. The EC50 [4, 8] was 100 to 500 nM.

In the case of `O=C(c1cnccn1)N1CCN(c2ncnc3[nH]ccc23)CC12CC2` [Example 19, Pyrazin-2-yl-[7-(7H-pyrrolo[2,3-d]pyrimidin-4-yl)-4,7-diazaspiro[2.5]oct-4-yl]methanone], the EC50 [1, 9] is reported as < 100 nM, the EC50 [2, 10] is reported as 100 to 500 nM and the EC50 [3, 11] is reported as < 100 nM. For the same compound, the EC50 [4, 12] was < 100 nM.

In the case of `COc1cnc2[nH]ccc2c1N1CCN(C(=O)c2csc3ccccc23)C2(CC2)C1` [Example 289, Benzo[b]thiophen-3-yl-[7-(5-methoxy-1H-pyrrolo[2,3-b]pyridin-4-yl)-4,7-diaza-spiro[2.5]oct-4-yl]-methanone], the EC50 [1, 5] is reported as 100 to 500 nM, the EC50 [2, 6] is reported as > 500 nM and the EC50 [3, 7] is reported as 100 to 500 nM. The EC50 [4, 8] was 100 to 500 nM.

`N#Cc1cccc(C(=O)N2CCN(c3nc(N)nc4[nH]ccc34)CC23CC3)c1` [Example 304, 3-[7-(2-Amino-7H-pyrrolo[2,3-d]pyrimidin-4-yl)-4,7-diaza-spiro[2.5]octane-4-carbonyl]-benzonitrile] was tested, and the EC50 [1, 5] was < 100 nM, the EC50 [2, 6] was 100 to 500 nM and the EC50 [3, 7] was < 100 nM. For the same compound, the EC50 [4, 8] was < 100 nM.

For `COCCCNC(=S)N1[C@@H]2CC[C@H]1CN(c1ncnc3[nH]ccc13)C2` [Example 39, 3-(7H-Pyrrolo[2,3-d]pyrimidin-4-yl)-3,8-diazabicyclo[3.2.1]octane-8-carbothioic acid (3-methoxy-propyl)amide], the EC50 [1, 9] was > 500 nM, the EC50 [2, 10] was > 500 nM and the EC50 [3, 11] was 100 to 500 nM. For the same compound, the EC50 [4, 12] was > 500 nM.

For `CS(=O)(=O)c1ccc(C(=O)N2CCN(c3ncnc4[nH]ccc34)CC23CC3)cc1F` [Example 370, (3-Fluoro-4-methanesulfonyl-phenyl)-[7-(7H-pyrrolo[2,3-d]pyrimidin-4-yl)-4,7-diaza-spiro[2.5]oct-4-yl]-methanone], the EC50 [1, 5] was < 100 nM, the EC50 [2, 6] was 100 to 500 nM and the EC50 [3, 7] was < 100 nM. For the same compound, the EC50 [4, 8] was < 100 nM.

With `COc1cnc2[nH]ccc2c1N1CCN(C(=O)c2ccccc2)C2(CC2)C1` [Example 283, [7-(5-Methoxy-1H-pyrrolo[2,3-b]pyridin-4-yl)-4,7-diaza-spiro[2.5]oct-4-yl]-phenyl-methanone] the EC50 [1, 5] was > 500 nM, the EC50 [2, 6] was > 500 nM and the EC50 [3, 7] was 100 to 500 nM. It also gave an EC50 [4, 8] of 100 to 500 nM.

`N#CCc1ccc(C(=O)N2[C@@H]3CC[C@@H]2CN(c2ncnc4[nH]ccc24)C3)cc1` [Example 175, {4-[3-(7H-Pyrrolo[2,3-d]pyrimidin-4-yl)-3,8-diaza-bicyclo[3.2.1]octane-8-carbonyl]-phenyl}-acetonitrile] was tested, and the EC50 [1, 9] was < 100 nM, the EC50 [2, 10] was > 500 nM and the EC50 [3, 11] was < 100 nM. It also gave an EC50 [4, 12] of 100 to 500 nM.

For `O=C(c1ccc2[nH]ccc2c1)N1[C@@H]2CC[C@H]1CN(c1ncnc3[nH]ccc13)C2` [Example 341, (1H-Indol-5-yl)-[3-(7H-pyrrolo[2,3-d]pyrimidin-4-yl)-3,8-diaza-bicyclo[3.2.1]oct-8-yl]-methanone], the EC50 [1, 5] was < 100 nM, the EC50 [2, 6] was 100 to 500 nM and the EC50 [3, 7] was < 100 nM. For the same compound, the EC50 [4, 8] was < 100 nM.

With `N#Cc1ccc(C(=O)N2CCN(c3ncnc4[nH]cc(Cl)c34)CC23CC3)cc1` [Example 315, 4-[7-(5-Chloro-7H-pyrrolo[2,3-d]pyrimidin-4-yl)-4,7-diaza-spiro[2.5]octane-4-carbonyl]-benzonitrile] the EC50 [1, 5] was > 500 nM, the EC50 [2, 6] was > 500 nM and the EC50 [3, 7] was > 500 nM. For the same compound, the EC50 [4, 8] was > 500 nM.

With `NS(=O)(=O)c1ccc(/C=C/C(=O)N2CCN(c3ncnc4[nH]ccc34)CC23CC3)cc1` [Example 197, 4-{3-Oxo-3-[7-(7H-pyrrolo[2,3-d]pyrimidin-4-yl)-4,7-diaza-spiro[2.5]oct-4-0]-propenyl}-benzenesulfonamide] the EC50 [1, 9] was < 100 nM, the EC50 [2, 10] was < 100 nM and the EC50 [3, 11] was < 100 nM. For the same compound, the EC50 [4, 12] was < 100 nM.

In the case of `O=C(Cc1ccc(C(F)(F)F)cc1)N1CCN(c2ncnc3[nH]cc(Cl)c23)CC12CC2` [Example 321, 1-[7-(5-Chloro-7H-pyrrolo[2,3-d]pyrimidin-4-yl)-4,7-diaza-spiro[2.5]oct-4-yl]-2-(4-trifluoromethyl-phenyl)-ethanone], the EC50 [1, 5] is reported as 100 to 500 nM, the EC50 [2, 6] is reported as > 500 nM and the EC50 [3, 7] is reported as 100 to 500 nM. The EC50 [4, 8] was < 100 nM.

In the case of `CC(C)S(=O)(=O)Nc1ccc(C(=O)N2CCN(c3ncnc4[nH]ccc34)CC23CC3)cc1` [Example 432, Propane-2-sulfonic acid {4-[7-(7H-pyrrolo[2,3-d]pyrimidin-4-yl)-4,7-diaza-spiro[2.5]octane-4-carbonyl]-phenyl}-amide], the EC50 [1, 5] is reported as < 100 nM, the EC50 [2, 6] is reported as 100 to 500 nM and the EC50 [3, 7] is reported as < 100 nM. The EC50 [4, 8] was < 100 nM.

For `N#Cc1cc(CC(=O)N2CCN(c3ncnc4[nH]ccc34)CC23CC3)ccc1F` [Example 66, 2-Fluoro-5-{2-oxo-2-[7-(7H-pyrrolo[2,3-d]pyrimidin-4-yl)-4,7-diaza-spiro[2.5]oct-4-yl]-ethyl}-benzonitrile], the EC50 [1, 9] was < 100 nM, the EC50 [2, 10] was > 500 nM and the EC50 [3, 11] was < 100 nM. It also gave an EC50 [4, 12] of 100 to 500 nM.

For `CC1CN(C(=O)C2(C#N)CC2)C2(CC2)CN1c1ncnc2[nH]ccc12` (stereo not shown) [Example 149, 1-[6-Methyl-7-(7H-pyrrolo[2,3-d]pyrimidin-4-yl)-4,7-diaza-spiro[2.5]octane-4-carbonyl]-cyclopropanecarbonitrile], the EC50 [1, 9] was < 100 nM, the EC50 [2, 10] was 100 to 500 nM and the EC50 [3, 11] was < 100 nM. The EC50 [4, 12] was 100 to 500 nM.

`O=C(Cc1cc(Br)cs1)N1CCN(c2ncnc3[nH]ccc23)CC12CC2` [Example 387, 2-(4-Bromo-thiophen-2-yl)-1-[7-(7H-pyrrolo[2,3-d]pyrimidin-4-yl)-4,7-diaza-spiro[2.5]oct-4-yl]-ethanone] was tested, and the EC50 [1, 5] was < 100 nM, the EC50 [2, 6] was 100 to 500 nM and the EC50 [3, 7] was < 100 nM. For the same compound, the EC50 [4, 8] was < 100 nM.

With `S=C(c1cc2c(s1)CCC2)N1CCN(c2ncnc3[nH]ccc23)CC12CC2` [Example 440, (5,6-Dihydro-4H-cyclopenta[b]thiophen-2-yl)-[7-(7H-pyrrolo[2,3-d]Pyrimidin-4-yl)-4,7-diaza-spiro[2.5]oct-4-yl]-methanethione] the EC50 ([1]; HTRF assay, read-out: JAK1 kinase inhibitory activity (EC50)) was < 100 nM, the EC50 ([2]; HTRF assay, read-out: TYK2 kinase inhibitory activity (EC50)) was 100 to 500 nM and the EC50 ([3]; HTRF assay, read-out: JAK2 kinase inhibitory activity (EC50)) was < 100 nM. It also gave an EC50 ([4]; HTRF assay, read-out: JAK3 kinase inhibitory activity (EC50)) of 100 to 500 nM.

In the case of `Cc1ccc2sc(C(=O)N3[C@@H]4CC[C@H]3CN(c3ncnc5[nH]ccc35)C4)cc2c1` [Example 247, (5-Methyl-benzo[b]thiophen-2-yl)-[3-(7H-pyrrolo[2,3-d]pyrimidin-4-yl)-3,8-diaza-bicyclo[3.2.1]oct-8-yl]-methanone], the EC50 [1, 5] is reported as < 100 nM, the EC50 [2, 6] is reported as > 500 nM and the EC50 [3, 7] is reported as < 100 nM. It also gave an EC50 [4, 8] of 100 to 500 nM.

`N#CCc1cccc(CC(=O)N2CCN(c3ncnc4[nH]cc(Cl)c34)CC23CC3)c1` [Example 318, (3-{2-[7-(5-Chloro-7H-pyrrolo[2,3-d]pyrimidin-4-yl)-4,7-diaza-spiro[2.5]oct-4-yl]-2-oxo-ethyl}-phenyl)-acetonitrile] was tested, and the EC50 [1, 5] was > 500 nM, the EC50 [2, 6] was > 500 nM and the EC50 [3, 7] was > 500 nM. The EC50 [4, 8] was > 500 nM.

`Cc1c(C(=O)N2CCN(c3ccnc4[nH]ccc34)CC23CC3)sc2ccccc12` [Example 232, (3-Methyl-benzo[b]thiophen-2-yl)-[7-(1H-pyrrolo[2,3-b]pyridin-4-yl)-4,7-diaza-spiro[2.5]oct-4-yl]-methanone] was tested, and the EC50 [1, 5] was < 100 nM, the EC50 [2, 6] was 100 to 500 nM and the EC50 [3, 7] was < 100 nM. For the same compound, the EC50 [4, 8] was > 500 nM.
